Drawing on patent US12344595B2, “2-amino-n-phenyl-nicotinamides as NAV1.8 inhibitors” (Merck Sharp & Dohme LLC, priority 2018, dated 2025), this text covers IC50 for eight molecules.

The target in the assay is human Nav1.8 (Homo sapiens (Human), UniProt Q9Y5Y9). Description: Nav1.8 Qube automated patch-clamp assay. As to conditions: Nav1.8 Qube Assay; human Nav1.8 channels stably expressed in HEK 293 cells. Format: cell-based. The method in brief: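 IC50 values came from Hill fitting of peak currents: pulse 1 for resting-state and pulse 10 for inactivated-state inhibition. Currents were recorded in stably transfected HEK293 cells at room temperature, with ten 20 ms steps to 10 mV at 1 Hz from a −90 mV hold. External solution was 150 mM NaCl-based; internal solution was CsF/CsCl.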
Sequence of human Nav1.8 (Q9Y5Y9 whole entry): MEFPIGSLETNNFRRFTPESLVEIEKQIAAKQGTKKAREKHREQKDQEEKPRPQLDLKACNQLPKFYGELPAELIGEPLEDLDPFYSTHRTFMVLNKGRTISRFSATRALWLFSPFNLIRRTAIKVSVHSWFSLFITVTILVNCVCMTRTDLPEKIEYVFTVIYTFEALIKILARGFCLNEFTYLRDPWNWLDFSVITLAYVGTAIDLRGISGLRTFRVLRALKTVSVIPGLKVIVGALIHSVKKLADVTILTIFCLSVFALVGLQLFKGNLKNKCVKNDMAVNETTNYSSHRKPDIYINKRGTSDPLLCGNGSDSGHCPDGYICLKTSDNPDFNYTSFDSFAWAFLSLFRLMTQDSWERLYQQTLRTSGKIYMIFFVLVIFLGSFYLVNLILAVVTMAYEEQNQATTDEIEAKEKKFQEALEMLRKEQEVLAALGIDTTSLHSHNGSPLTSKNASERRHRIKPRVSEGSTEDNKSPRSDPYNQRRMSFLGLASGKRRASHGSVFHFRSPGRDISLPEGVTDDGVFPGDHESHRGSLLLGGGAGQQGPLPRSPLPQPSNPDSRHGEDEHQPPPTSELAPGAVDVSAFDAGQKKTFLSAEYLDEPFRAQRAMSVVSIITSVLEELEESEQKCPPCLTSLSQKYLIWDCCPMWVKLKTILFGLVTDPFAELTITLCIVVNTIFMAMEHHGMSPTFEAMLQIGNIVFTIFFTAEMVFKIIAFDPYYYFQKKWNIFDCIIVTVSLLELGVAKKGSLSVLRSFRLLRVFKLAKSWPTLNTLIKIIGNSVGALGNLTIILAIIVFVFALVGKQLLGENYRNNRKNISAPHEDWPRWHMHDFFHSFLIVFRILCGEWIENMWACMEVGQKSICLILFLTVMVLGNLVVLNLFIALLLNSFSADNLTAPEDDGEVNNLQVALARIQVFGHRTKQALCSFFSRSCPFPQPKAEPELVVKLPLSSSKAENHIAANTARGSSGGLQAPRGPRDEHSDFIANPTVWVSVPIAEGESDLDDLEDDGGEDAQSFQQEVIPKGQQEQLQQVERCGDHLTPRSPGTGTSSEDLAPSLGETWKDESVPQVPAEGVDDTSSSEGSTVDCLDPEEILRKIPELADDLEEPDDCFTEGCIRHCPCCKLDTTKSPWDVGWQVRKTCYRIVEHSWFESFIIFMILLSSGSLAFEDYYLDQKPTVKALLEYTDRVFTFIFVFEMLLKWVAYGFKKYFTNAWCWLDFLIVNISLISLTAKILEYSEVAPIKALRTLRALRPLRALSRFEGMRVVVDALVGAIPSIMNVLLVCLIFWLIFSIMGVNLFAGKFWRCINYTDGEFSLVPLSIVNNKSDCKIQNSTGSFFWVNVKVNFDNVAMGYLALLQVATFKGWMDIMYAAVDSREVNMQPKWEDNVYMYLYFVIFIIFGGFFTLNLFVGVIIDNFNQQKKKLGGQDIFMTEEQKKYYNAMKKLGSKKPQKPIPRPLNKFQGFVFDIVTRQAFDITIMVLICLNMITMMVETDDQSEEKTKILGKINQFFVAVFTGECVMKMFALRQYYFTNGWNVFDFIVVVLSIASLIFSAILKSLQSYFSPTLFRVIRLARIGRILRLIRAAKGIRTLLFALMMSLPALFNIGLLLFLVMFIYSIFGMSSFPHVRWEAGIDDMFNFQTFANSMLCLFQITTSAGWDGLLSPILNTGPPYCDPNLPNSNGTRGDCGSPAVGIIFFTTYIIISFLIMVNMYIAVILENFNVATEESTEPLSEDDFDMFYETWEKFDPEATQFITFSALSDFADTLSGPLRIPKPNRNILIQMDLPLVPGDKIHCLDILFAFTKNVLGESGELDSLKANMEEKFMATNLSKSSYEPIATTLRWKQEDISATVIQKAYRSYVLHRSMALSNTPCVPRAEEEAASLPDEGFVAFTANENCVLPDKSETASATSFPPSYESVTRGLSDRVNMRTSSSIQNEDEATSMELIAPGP

Usually pIC50 stands for the IC50 on a negative log10 scale, so that one unit is a factor of ten. High values mean a low IC50, low ones a high IC50.

pIC50: −log10 of the molar value.

`NS(=O)(=O)c1cccc(NC(=O)c2cc(-c3cccnc3)cnc2N2CCCCCC2)c1` [Example 34, 2-(azepan-1-yl)-5-(3-pyridyl)-N-(3-sulfamoyl-phenyl)pyridine-3-carboxamide] showed a pIC50 of 6.22.
Then `N#Cc1ccc(NC(=O)c2cc(C(F)(F)F)cnc2N2CCCCCC2)cc1` [Example 22, 2-(azepan-1-yl)-N-(4-cyanophenyl)-5-(trifluoromethyl)pyridine-3-carboxamide], with 6.33; and `NS(=O)(=O)c1cccc(NC(=O)c2cc(C(F)(F)F)cnc2N2CCCC(F)(F)C2)c1` [Example 51, 2-(3,3-difluoro-1-piperidyl)-N-(3-sulfamoylphenyl)-5-(trifluoromethyl)-pyridine-3-carboxamide], with 6.61.
In the case of `CS(=O)(=O)c1cccc(NC(=O)c2cc(C(F)(F)F)cnc2N2CCC(F)(F)CC2)c1` [Example 152, 2-(4,4-difluoropiperidin-1-yl)-N-(3-(methylsulfonyl)phenyl)-5-(trifluoromethyl)nicotinamide], the pIC50 is 7.17.
With `NS(=O)(=O)c1cccc(NC(=O)c2cc(C(F)(F)F)cnc2N2CCCCCCC2)c1` [Example 88, 2-(azocan-1-yl)-N-(3-sulfamoylphenyl)-5-(trifluoromethyl)-pyridine-3-carboxamide] the figure was 8.22.
Consider `Cc1cc(C(=O)Nc2cccc(C(N)=O)c2)c(N2CCCCCC2)nc1C` [Example 37, 2-(azepan-1-yl)-N-(3-carbamoylphenyl)-5,6-dimethyl-pyridine-3-carboxamide], for which the pIC50 was 6.97.
Then `NS(=O)(=O)c1cccc(NC(=O)c2cc(C(F)(F)F)cnc2N2CC3CCC(C2)O3)c1` [Example 52, 2-(8-oxa-3-azabicyclo[3.2.1]octan-3-yl)-N-(3-sulfamoyl-phenyl)-5-(trifluoro-methyl)pyridine-3-carboxamide], with 6.52; and `CC1(C)CCCN(c2ncc(C(F)(F)F)cc2C(=O)Nc2cccc(S(N)(=O)=O)c2)CC1` [Example 80, 2-(4,4-dimethylazepan-1-yl)-N-(3-sulfamoyl-phenyl)-5-(trifluoro-methyl)nicotinamide], with 7.96.
